The source of these data is ChEMBL document CHEMBL5665443, “Enzyme Inhibitor Single Concentration assay results for EUbOPEN Chemogenomics Library” (2024).

The target in assay [1] is T1, Endonuclease III-like protein 1 (Homo sapiens) (UniProt P78549).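 Further: enzyme assay tracking NTHL1 cutting and release of a quenched double-stranded DNA oligo substrate, read as fluorescence at 594 nm.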
T1 sequence (whole entry): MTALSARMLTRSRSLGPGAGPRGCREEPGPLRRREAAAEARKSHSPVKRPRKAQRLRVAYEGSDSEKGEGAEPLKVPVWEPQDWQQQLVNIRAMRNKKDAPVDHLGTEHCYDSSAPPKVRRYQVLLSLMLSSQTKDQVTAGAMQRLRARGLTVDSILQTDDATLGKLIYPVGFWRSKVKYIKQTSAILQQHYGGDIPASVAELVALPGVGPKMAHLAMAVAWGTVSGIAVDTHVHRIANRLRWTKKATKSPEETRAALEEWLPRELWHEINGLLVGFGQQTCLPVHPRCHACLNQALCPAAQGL
The note with it: Compound Concentration 10.0 uM, Hit No.
Description: Inhibition of NTHL1 by quantifying inhibition of NTHL1-mediated cleavage and dissociation of quenched duplex DNA oligonucleotides, measured as fluorescence at 594 nm.

The target of assay [2] is T2, Endonuclease 8-like 2 (Homo sapiens) (UniProt Q969S2).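 Further: fluorescence at 594 nm reports NEIL2 cutting and release of a quenched double-stranded DNA oligo substrate, reduced signal read as inhibition.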
T2 sequence (whole entry): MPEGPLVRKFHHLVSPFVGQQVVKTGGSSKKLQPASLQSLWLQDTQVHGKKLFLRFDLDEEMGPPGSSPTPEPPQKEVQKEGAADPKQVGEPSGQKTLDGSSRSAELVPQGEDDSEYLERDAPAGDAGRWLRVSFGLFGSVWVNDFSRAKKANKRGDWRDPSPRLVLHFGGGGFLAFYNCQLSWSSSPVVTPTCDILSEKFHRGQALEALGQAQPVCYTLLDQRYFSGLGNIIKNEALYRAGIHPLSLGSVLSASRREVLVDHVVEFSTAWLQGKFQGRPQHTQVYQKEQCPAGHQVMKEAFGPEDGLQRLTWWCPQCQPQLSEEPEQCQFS
The note with it: Compound Concentration 10.0 uM, Hit No.
Description: Inhibition of NEIL2 by quantifying inhibition of NEIL2-mediated cleavage and dissociation of quenched duplex DNA oligonucleotides, measured as fluorescence at 594 nm.

The target in assay [3] is G/T mismatch-specific thymine DNA glycosylase (Homo sapiens) (UniProt Q13569). The note with it: Compound Concentration 10.0 uM.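 Further: human TDG cleavage of quenched duplex DNA oligonucleotides coupled to APE1, strand release read as fluorescence at 594 nm, inhibition of TDG activity.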
Description: Inhibition of TDG by quantifying inhibition of TDG-mediated cleavage and dissociation of quenched duplex DNA oligonucleotides, measured as fluorescence at 594 nm. To generate a functional strand incision and increase turn-over this assay is coupled to APE1.
For assay [4], the target named is DNA-3-methyladenine glycosylase (Homo sapiens) (UniProt P29372). The note with it: Compound Concentration 10.0 uM, Hit No.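 Further: enzyme assay where MPG cuts a quenched duplex DNA oligonucleotide probe, paired with APE1 for strand incision and turnover, read as fluorescence at 594 nm.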
Description: Inhibition of MPG by quantifying inhibition of MPG-mediated cleavage and dissociation of quenched duplex DNA oligonucleotides, measured as fluorescence at 594 nm. To generate a functional strand incision and increase turn-over this assay is coupled to APE1.
For assay [5], the target named is Endonuclease 8-like 1 (Homo sapiens) (UniProt Q96FI4). The note with it: Compound Concentration 10.0 uM, Hit No.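 Further: fluorescence at 594 nm from quenched duplex DNA oligonucleotides released by NEIL1 cleavage and strand separation, reported as reduction of this enzyme activity.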
Description: Inhibition of NEIL1 by quantifying inhibition of NEIL1-mediated cleavage and dissociation of quenched duplex DNA oligonucleotides, measured as fluorescence at 594 nm.
In assay [6] the target is N-glycosylase/DNA lyase (Homo sapiens) (UniProt O15527). The note with it: Compound Concentration 10.0 uM.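 Further: OGG1 cleavage of a quenched duplex DNA oligonucleotide, coupled to APE1 for strand incision, read as fluorescence at 594 nm.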
Description: Inhibition of OGG1 by quantifying inhibition of OGG1-mediated cleavage and dissociation of quenched duplex DNA oligonucleotides, measured as fluorescence at 594 nm. To generate a functional strand incision and increase turn-over this assay is coupled to APE1.
Assay [7] has as its target Uracil-DNA glycosylase (Homo sapiens) (UniProt P13051). The note with it: Compound Concentration 10.0 uM, Hit No.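 Further: UNG excision on a quenched double-stranded DNA oligo probe, with APE1 added for strand incision and turnover, read as fluorescence at 594 nm as strands separate.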
Description: Inhibition of UNG by quantifying inhibition of UNG-mediated cleavage and dissociation of quenched duplex DNA oligonucleotides, measured as fluorescence at 594 nm. To generate a functional strand incision and increase turn-over this assay is coupled to APE1.
In assay [8] the target is T3, Adenine DNA glycosylase (Homo sapiens) (UniProt Q9UIF7).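 Further: human MUTYH activity read as 594 nm fluorescence from cleavage and release of a quenched DNA duplex, coupled with APE1 for strand incision, lower signal meaning inhibition.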
T3 sequence (whole entry): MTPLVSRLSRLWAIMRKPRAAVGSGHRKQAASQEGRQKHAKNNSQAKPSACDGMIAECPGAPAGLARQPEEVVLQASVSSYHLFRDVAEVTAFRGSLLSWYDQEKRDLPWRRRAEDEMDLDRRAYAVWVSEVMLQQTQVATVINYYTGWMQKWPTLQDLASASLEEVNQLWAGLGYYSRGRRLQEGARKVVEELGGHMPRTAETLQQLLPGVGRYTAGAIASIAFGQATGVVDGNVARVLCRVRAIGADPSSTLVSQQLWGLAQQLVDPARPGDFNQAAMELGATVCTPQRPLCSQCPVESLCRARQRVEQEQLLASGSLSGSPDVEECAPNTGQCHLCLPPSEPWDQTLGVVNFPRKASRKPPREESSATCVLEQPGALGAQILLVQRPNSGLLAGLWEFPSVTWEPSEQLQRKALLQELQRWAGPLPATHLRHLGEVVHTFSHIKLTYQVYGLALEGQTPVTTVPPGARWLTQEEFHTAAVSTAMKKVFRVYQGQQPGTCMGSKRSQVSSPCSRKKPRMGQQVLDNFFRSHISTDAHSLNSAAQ
The note with it: Compound Concentration 10.0 uM, Hit No.
Description: Inhibition of MUTYH by quantifying inhibition of MUTYH-mediated cleavage and dissociation of quenched duplex DNA oligonucleotides, measured as fluorescence at 594 nm. To generate a functional strand incision and increase turn-over this assay is coupled to APE1.

For assay [9], the target named is T4, Single-strand selective monofunctional uracil DNA glycosylase (Homo sapiens) (UniProt Q53HV7).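 Further: enzymatic SMUG1 assay coupled with APE1, reading fluorescence at 594 nm released when a quenched double-stranded DNA oligonucleotide substrate is cleaved and separated.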
T4 sequence (whole entry): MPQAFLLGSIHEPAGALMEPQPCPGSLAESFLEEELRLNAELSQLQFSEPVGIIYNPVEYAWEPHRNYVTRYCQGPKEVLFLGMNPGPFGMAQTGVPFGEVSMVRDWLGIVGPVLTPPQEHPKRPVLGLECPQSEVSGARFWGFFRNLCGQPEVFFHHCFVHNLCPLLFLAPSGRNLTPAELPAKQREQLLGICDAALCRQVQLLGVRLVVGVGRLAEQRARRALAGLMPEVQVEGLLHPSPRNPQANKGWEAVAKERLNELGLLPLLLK
The note with it: Compound Concentration 10.0 uM, Hit No.
Description: Inhibition of SMUG1 by quantifying inhibition of SMUG1-mediated cleavage and dissociation of quenched duplex DNA oligonucleotides, measured as fluorescence at 594 nm. To generate a functional strand incision and increase turn-over this assay is coupled to APE1.

The target of assay [10] is Methyl-CpG-binding domain protein 4 (Homo sapiens) (UniProt O95243). The note with it: Compound Concentration 10.0 uM, Hit No.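 Further: MBD4 activity read as fluorescence at 594 nm from cleavage and release of a quenched duplex DNA oligonucleotide, with APE1 coupled to incise the strand and raise turnover.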
Description: Inhibition of MBD4 by quantifying inhibition of MBD4-mediated cleavage and dissociation of quenched duplex DNA oligonucleotides, measured as fluorescence at 594 nm. To generate a functional strand incision and increase turn-over this assay is coupled to APE1.

Each structure is given as a SMILES string.

Chain of N-glycosylase/DNA lyase (Homo sapiens) (O15527 whole entry): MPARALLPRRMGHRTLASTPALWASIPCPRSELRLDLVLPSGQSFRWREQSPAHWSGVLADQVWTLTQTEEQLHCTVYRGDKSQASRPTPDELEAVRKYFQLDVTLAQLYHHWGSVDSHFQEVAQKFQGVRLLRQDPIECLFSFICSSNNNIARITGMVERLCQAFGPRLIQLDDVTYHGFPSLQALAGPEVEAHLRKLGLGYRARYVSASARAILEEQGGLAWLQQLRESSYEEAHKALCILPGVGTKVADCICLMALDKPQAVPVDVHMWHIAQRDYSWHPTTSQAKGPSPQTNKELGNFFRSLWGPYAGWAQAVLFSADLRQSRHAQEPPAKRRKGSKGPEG
Chain of Uracil-DNA glycosylase (Homo sapiens) (P13051 whole entry): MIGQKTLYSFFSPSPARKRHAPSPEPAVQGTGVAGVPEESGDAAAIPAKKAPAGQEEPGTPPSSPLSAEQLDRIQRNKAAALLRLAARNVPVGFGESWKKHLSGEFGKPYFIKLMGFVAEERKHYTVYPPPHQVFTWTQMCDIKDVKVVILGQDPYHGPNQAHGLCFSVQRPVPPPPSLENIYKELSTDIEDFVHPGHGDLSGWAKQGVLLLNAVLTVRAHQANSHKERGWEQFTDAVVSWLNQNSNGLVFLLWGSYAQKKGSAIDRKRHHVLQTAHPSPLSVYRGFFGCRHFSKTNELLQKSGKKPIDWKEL
Chain of DNA-3-methyladenine glycosylase (Homo sapiens) (P29372 whole entry): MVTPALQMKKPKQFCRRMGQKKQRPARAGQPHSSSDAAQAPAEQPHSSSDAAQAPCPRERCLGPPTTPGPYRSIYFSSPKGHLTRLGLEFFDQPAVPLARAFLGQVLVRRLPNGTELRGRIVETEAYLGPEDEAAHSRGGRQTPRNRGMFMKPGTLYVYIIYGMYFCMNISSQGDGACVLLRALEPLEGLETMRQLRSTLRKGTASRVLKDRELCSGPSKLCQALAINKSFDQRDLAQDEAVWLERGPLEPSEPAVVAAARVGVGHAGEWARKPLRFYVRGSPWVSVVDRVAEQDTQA
Chain of Endonuclease 8-like 1 (Homo sapiens) (Q96FI4 whole entry): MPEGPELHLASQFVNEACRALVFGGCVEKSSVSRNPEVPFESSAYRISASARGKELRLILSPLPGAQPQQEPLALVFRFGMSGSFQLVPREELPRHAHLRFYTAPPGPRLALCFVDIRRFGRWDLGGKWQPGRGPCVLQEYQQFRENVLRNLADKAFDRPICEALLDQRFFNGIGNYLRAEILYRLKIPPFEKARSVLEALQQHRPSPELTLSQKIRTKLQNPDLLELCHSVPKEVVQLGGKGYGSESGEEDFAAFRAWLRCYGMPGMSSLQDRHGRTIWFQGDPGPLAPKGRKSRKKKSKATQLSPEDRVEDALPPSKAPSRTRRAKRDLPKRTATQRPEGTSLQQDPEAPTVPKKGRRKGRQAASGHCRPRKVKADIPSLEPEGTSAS
Chain of Methyl-CpG-binding domain protein 4 (Homo sapiens) (O95243 whole entry, the tested form may be a part): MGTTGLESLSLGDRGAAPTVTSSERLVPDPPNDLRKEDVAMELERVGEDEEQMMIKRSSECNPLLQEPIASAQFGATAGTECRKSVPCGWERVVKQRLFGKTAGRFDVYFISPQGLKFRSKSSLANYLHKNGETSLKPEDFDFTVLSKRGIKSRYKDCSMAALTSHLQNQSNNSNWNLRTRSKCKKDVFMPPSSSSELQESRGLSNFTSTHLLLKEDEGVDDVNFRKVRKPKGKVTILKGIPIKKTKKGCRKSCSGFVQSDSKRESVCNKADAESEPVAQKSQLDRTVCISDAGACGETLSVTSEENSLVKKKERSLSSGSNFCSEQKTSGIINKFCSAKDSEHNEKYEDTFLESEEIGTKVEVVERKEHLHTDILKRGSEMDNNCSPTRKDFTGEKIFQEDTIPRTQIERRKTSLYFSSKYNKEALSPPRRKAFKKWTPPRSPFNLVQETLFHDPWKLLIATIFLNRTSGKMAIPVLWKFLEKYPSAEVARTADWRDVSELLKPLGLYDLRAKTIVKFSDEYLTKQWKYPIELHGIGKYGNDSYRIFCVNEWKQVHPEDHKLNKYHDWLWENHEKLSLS
Chain of G/T mismatch-specific thymine DNA glycosylase (Homo sapiens) (Q13569 whole entry): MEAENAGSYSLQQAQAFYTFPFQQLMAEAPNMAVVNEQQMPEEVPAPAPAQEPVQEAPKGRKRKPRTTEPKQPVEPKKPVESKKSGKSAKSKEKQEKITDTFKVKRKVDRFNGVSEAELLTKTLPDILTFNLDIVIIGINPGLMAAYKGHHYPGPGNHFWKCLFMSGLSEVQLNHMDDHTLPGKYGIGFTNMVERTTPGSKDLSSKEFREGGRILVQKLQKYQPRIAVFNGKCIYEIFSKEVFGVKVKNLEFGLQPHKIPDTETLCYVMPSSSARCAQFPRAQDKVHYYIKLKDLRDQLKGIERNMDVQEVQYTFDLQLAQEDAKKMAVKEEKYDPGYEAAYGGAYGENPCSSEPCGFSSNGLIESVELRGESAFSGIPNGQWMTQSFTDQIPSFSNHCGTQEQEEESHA

As to `Cc1cccc(F)c1C(=O)Nc1cnc(-c2cc3c(cc2Cl)OC(F)(F)O3)cn1`, the inhibition is 8.82% in assay [1]; 6.27% in assay [2]; -9.45% in assay [3] (Hit No); 18.4% in assay [4]; 1.79% in assay [5]; -4.79% in assay [6] (Hit No). For the same compound, the inhibition in assay [7] is -6.24%; in [8], 6.43%; in assay [9], 9.65%; in assay [10] it was 7.48%.
In the case of `CCCOc1ccc2[nH]cc(C3=CCNCC3)c2n1`, the inhibition in assay [1] is 7.17%; in assay [2] it was -8.25%; in [3] (Hit No), 11.1%; in assay [4], -2.25%; in assay [5] it was 0.306%; in assay [6] (Hit No), -9.55%. Also, the inhibition in assay [7] was -5.52%; in assay [8], 0.205%; in assay [9] it was -1.82%; in assay [10], -0.485%.
In the case of `CC(CNS(=O)(=O)C(C)C)c1ccc(-c2ccc(C#N)cc2)cc1` (centres undefined), the inhibition in assay [1] was 4.7%; in assay [2] it was 0.669%; in assay [3] (Hit No) it was 11.5%; in assay [4] it was 23.5%; in [5], 12%; in assay [6] (Hit No), -4.77%. For the same compound, the inhibition is -7.52% in [7], -2.6% in assay [8], 7.84% in assay [9] and 19.3% in [10].
As for `NCCc1c[nH]cn1`, the inhibition was 15.1% in assay [1]; -0.234% in assay [2]; 7.61% in assay [3] (Hit No); -7.46% in assay [4]; -0.352% in assay [5]; 0.419% in assay [6] (Hit No). Also, the inhibition in [7] is -7.79%; in assay [8], 10.5%; in assay [9], -0.0333%; in assay [10], 10.4%.
Regarding `Cc1cccc(NC(=O)CN2CCC(c3ccccn3)CC2)c1`, the inhibition in assay [1] is 12.1%; in assay [2] it was -0.35%; in assay [3] (Hit No), 12.4%; in [4], 7.82%; in [5], -1.77%; in assay [6] (Hit No) it was 0.0304%. For the same compound, the inhibition in [7] was -6.98%; in assay [8], 18.5%; in assay [9] it was 0.438%; in [10], 8.44%.
In the case of `CC(C)(O)c1ccccc1CC[C@@H](SCC1(CC(=O)O)CC1)c1cccc(/C=C/c2ccc3ccc(Cl)cc3n2)c1`, the inhibition in assay [1] was found to be 9.99%; in assay [2], 14%; in assay [3] (Hit Yes), 66.5%; in assay [4] it was 53.9%; in assay [6] (Hit Yes), 61.2%; in [7], 8.83%. Further, the values for the inhibition in assay [8], in assay [9] and in assay [10] were 47.1%, 11.9% and 56.1%, respectively.
Regarding `CCCCc1nc(Cl)c(CO)n1Cc1ccc(-c2ccccc2-c2nnn[nH]2)cc1`, the inhibition in assay [1] is 11.4%; in assay [3] (Hit No), 8.31%; in assay [4], -2.79%; in assay [5], -2.87%; in [6] (Hit No), -0.971%; in assay [7], -9.96%. In addition, the inhibition in assay [8] was 4.88%; in assay [9] it was -6.19%; in [10], 1.95%.
`CN[C@@H]1Cc2cccc3[nH]c(=O)n(c23)C1`: the inhibition in assay [1] was 21.2%; in assay [3] (Hit No), 15.8%; in assay [4], -1.72%; in assay [5], -2.21%; in [6] (Hit No), -6.94%; in assay [7] it was -3.54%. The values for the inhibition in assay [8], in assay [9] and in [10] were 46.8%, 0.551% and 11.7%, respectively.
As to `COc1cc(N)c(Cl)cc1C(=O)NC1CN2CCC1CC2` (centres undefined), the inhibition in assay [1] is 17.1%; in assay [3] (Hit No), -0.441%; in assay [4], -7.22%; in [5], -0.139%; in [6] (Hit No), 1%; in assay [7], -6.64%. Besides, the inhibition in assay [8] is 0.595%; in assay [9], -3.07%; in assay [10], -9.33%.
In the case of `COc1ccc2[nH]c(I)c(CCNC(C)=O)c2c1`, the inhibition in [1] is -1.91%; in [3] (Hit No), 3.33%; in assay [4], -6.47%; in assay [5] it was -5.77%; in [6] (Hit No), -3.69%; in [7] it was -9.84%. The inhibition in [8] was 10.2%; in assay [9], -7.64%; in [10], 8.97%.
`COc1ccc2c(c1)C(C(=O)N(Cc1ccc(N(C)C)cc1)c1ccc(C(C)C)cc1)CCC2` (centres undefined): the inhibition was 0.568% in [1]; 15.3% in [3] (Hit No); 34.2% in assay [4]; 4.6% in assay [5]; 3.53% in assay [6] (Hit No); -2.75% in assay [7]. Also, the figures for the inhibition in assay [8], in [9] and in [10] were 34.4%, -6.91% and 26.8%, respectively.
Turning to `CCCCC[C@H](O)/C=C/[C@H]1[C@H](O)CC(=O)[C@@H]1CCCCCCC(=O)O`, the inhibition in [1] is 22.9%; in assay [3] (Hit No), 19.5%; in [4], 6.53%; in [5] it was 4.31%; in [6] (Hit No), -9.68%; in assay [7], -7.06%. Further, the inhibition in assay [8] is -0.521%; in assay [9], -7.25%; in assay [10] it was 3.22%.
For the compound `Cc1cccc(C2CN(C)CCc3c2cc(O)c(O)c3Cl)c1` (centres undefined), the inhibition in [1] is 7.17%; in assay [3] (Hit No), 27.7%; in [4], 15%; in [5] it was -4.88%; in assay [6] (Hit No) it was -8.27%; in assay [7], -2.8%. The inhibition in [8] is 33.4%; in [9], -3.57%; in assay [10], 26.4%.
`O=C(NCCNCC(O)COc1ccc(O)cc1)N1CCOCC1` (centres undefined): the inhibition in assay [1] was 8%; in assay [3] (Hit No) it was 9.41%; in assay [4] it was -2.83%; in assay [5], 1.79%; in [6] (Hit No), -7.78%; in assay [7], -5.67%. The results for the inhibition in [8], in [9] and in assay [10] were -0.651%, -1.43% and 9.4%, respectively.
As to `Cc1cc(C)cc(-c2cnc3cc(Cl)c(-c4cccc(O)c4)cc3c2OCCCN)c1`, the inhibition in assay [1] is -4.67%; in assay [2], 2.26%; in assay [3] (Hit No) it was 24.4%; in assay [4], 9.86%; in [6] (Hit No), -3.25%; in assay [7], -7.52%. Also, the values for the inhibition in assay [8], in [9] and in assay [10] were -5.74%, 14.7% and 9.27%, respectively.
Take `N[C@@H](Cn1cc(F)c(=O)[nH]c1=O)C(=O)O`: the inhibition in [1] is 0.568%; in [3] (Hit No), 12.4%; in [4], 0.976%; in [5], -2.06%; in assay [6] (Hit No) it was -9.73%; in assay [7], -5.2%. The inhibition was 6.98% in [8], -7.64% in assay [9] and 3.94% in assay [10].
